We go through 15 molecules from patent publication US6720424B1, “Aminobenzoic acid derivatives” (Taisho Pharmaceutical Co., Ltd., priority 1999, dated 2004).

Like-named read-outs stand apart in the source and are kept apart here.

One data set addresses T1, KDR (Homo sapiens, UniProt P35968).
T1 construct: expressed in transfected cells; host or cells: NIH3T3
As to the kind of experiment: (125I)-VEGF binding inhibition on NIH3T3 cells in which KDR was forced to be expressed. To be noted: KDR-expressing NIH3T3 cells, (125I)-VEGF 25 pM, 90 minutes, read-out: IC50 (concentration of 50% binding inhibition). Here is the method: (§1) According to the method described in a document (Cell Growth & Differentiation, vol. 7, pp. 213-221, 1996), the following tests were carried out.
(§2) NIH3T3 cells in which Flt-1 was forced to be expressed were seeded on a 24-well collagen-coated plate (7×10^4/well), and were cultured in Dulbecco's modified Eagle's medium (DMEM) including 10% bovine serum and 200 μg/ml of Geneticin G418, for 24 hours at 37° C. under an atmosphere of 5% carbon dioxide gas. The cells were preincubated in Buffer A (including 10 mM HEPES (N-2-hydroxyethylpiperazine-N′-2-ethanesulfonic acid) and 0.1% BSA (bovine serum albumin) in DMEM), for 30 minutes at 4° C. Subsequently, the medium was replaced with Buffer B (including 10 mM HEPES and 0.5% BSA in DMEM). A test solution prepared by dissolving each of the test compounds shown in Table 19 in dimethylsulfoxide and subsequently diluting the solution into a prescribed concentration with Buffer B, and (^125I)-VEGF (the final concentration was set to 25 pM) were added thereto. Binding reaction was carried out for 90 minutes at […]. After completion of the reaction, the cells were washed three times with ice-cooled Buffer A. Subsequently, 0.5 ml of 0.5M NaOH were added to each well, and the cells were lysed in 30 minutes at room temperature. The radioactivity of the lysed cells in each well was measured by means of a gamma counter, and a total binding quantity of (^125I)-VEGF was calculated. Nonspecific binding quantity of (^125I)-VEGF was measured by competition assay in the presence of 10 nM non-labeled VEGF. The specific binding quantity of (^125I)-VEGF was calculated from the difference between the total binding quantity of (^125I)-VEGF and nonspecific binding quantity of (^125I)-VEGF.
(§3) The binding inhibition index of the test compounds was calculated by the following equation. [formula]
(§4) From this value, a concentration of 50% binding inhibition (IC50) of the test compound was calculated.
Test on each of the test compounds shown in Table 20 and Table 21 was carried out employing NIH3T3 cells in which KDR was forced to be expressed, in the same manner as described in Experimental Example 1 described above.

A further data set deals with T2, Flt-1 (Homo sapiens, UniProt P17948).
T2 construct: expressed in transfected cells; host or cells: NIH3T3
T2 sequence (P17948 27-1338): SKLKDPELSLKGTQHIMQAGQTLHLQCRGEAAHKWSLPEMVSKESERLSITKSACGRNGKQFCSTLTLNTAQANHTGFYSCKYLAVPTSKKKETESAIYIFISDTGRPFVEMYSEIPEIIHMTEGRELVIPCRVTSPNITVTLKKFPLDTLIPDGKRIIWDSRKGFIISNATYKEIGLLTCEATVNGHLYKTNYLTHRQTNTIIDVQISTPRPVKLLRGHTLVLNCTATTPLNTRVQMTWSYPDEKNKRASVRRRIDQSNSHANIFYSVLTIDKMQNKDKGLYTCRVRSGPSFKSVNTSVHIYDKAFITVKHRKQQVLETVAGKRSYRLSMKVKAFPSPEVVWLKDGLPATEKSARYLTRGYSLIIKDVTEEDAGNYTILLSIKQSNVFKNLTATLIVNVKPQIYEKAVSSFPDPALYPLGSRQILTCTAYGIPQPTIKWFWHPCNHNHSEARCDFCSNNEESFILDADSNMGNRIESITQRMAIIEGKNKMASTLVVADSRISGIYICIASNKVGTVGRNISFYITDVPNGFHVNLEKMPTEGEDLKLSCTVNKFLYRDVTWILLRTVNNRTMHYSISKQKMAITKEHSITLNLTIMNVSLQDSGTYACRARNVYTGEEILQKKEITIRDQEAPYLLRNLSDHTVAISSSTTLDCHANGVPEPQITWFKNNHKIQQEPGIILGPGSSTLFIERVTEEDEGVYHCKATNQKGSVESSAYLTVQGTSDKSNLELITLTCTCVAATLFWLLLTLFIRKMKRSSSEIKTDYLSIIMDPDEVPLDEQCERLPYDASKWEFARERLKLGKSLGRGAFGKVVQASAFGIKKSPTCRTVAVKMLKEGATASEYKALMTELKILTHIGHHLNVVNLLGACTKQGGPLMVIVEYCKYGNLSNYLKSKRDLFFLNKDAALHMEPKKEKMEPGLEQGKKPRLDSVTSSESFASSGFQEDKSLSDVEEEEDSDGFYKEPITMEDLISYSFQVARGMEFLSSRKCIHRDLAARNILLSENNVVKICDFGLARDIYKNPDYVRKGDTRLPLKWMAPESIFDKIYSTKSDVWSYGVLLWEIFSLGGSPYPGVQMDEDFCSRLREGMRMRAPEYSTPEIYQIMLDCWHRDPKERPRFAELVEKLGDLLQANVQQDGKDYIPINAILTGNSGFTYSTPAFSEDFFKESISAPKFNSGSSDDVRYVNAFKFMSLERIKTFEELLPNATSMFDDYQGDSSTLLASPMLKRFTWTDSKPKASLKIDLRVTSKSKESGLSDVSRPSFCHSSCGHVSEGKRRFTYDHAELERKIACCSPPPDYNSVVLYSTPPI
As to the kind of experiment: (125I)-VEGF binding inhibition on NIH3T3 cells in which Flt-1 was forced to be expressed. The conditions noted are these: Flt-1-expressing NIH3T3 cells, (125I)-VEGF 25 pM, 90 minutes; read-out: IC50 (concentration of 50% binding inhibition). Here is the method:
as §1, §2, §3, §4

T1 sequence (P35968 20-1356): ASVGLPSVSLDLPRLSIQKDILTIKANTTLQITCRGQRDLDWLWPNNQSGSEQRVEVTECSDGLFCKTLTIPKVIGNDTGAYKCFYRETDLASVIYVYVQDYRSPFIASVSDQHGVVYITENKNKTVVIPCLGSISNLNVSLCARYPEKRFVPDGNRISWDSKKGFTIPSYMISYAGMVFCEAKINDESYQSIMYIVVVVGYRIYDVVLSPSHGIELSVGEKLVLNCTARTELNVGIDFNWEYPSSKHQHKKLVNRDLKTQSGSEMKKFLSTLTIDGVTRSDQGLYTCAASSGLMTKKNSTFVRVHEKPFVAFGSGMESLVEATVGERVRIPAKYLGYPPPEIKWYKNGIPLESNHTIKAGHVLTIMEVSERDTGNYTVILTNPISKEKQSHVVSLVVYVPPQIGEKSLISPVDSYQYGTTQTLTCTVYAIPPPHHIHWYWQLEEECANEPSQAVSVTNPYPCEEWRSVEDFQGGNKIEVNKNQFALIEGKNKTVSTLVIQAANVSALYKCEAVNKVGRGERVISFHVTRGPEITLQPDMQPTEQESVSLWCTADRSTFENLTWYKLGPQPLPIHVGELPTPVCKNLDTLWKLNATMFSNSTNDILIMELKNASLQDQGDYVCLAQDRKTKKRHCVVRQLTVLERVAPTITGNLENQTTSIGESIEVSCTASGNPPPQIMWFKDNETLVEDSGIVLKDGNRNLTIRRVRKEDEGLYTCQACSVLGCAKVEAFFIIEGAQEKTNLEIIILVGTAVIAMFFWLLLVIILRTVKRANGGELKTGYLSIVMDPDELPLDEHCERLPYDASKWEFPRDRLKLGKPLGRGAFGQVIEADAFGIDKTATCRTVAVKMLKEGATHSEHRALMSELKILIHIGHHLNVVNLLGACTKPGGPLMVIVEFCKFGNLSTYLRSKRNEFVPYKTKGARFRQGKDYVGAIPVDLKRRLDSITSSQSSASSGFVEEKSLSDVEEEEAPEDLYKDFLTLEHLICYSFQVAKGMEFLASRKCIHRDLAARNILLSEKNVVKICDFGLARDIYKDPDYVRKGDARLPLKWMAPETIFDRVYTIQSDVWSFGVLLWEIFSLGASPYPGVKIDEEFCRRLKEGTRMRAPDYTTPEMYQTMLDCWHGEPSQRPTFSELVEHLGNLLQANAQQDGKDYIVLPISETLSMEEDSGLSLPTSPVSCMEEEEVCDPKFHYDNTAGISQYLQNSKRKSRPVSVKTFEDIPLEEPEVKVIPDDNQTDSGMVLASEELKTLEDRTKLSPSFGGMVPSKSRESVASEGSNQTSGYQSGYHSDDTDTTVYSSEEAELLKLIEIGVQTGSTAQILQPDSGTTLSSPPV

The molecule `CCCCCCCCCCCCCCCCCCOc1ccc(CCC(=O)Nc2ccc(Oc3ccc(C(=O)O)cc3)c(C(=O)O)c2)cc1` [Compound 27] had a melting point of 213 to 215 °C. In addition, the IC50 on KDR (Table 20) turned out to be 510 nM. Further, the IC50 on Flt-1 was found to be 680 nM.

With `CCCCCCCCCCCCCCCCCCOc1ccc(CCC(=O)Nc2ccc(Oc3cccc(C(=O)O)c3)c(C(=O)O)c2)cc1` [Compound 28], the melting point is 201 to 205 °C. Further, the IC50 at KDR (Table 20) is 420 nM. Besides, the IC50 on Flt-1 was 710 nM.

As for `CCCCCCCCCCCCCCCCCCOc1ccc(CCC(=O)N(C)c2ccc(SC)c(C(=O)O)c2)cc1` [Compound 113], the melting point fell in the range of 106 to 108 °C. In addition, the IC50 on KDR (Table 21) is 80 nM. Besides, on Flt-1, the IC50 was found to be 280 nM.

In the case of `CCCCCCCCCCCCCCCCCCOc1ccc(CC(=O)N(C)c2ccc(SC)c(C(=O)O)c2)cc1` [Compound 114], the IC50 at KDR (Table 21) amounted to 340 nM; on Flt-1 it was 420 nM.

`CCCCCCCCCCCCCCCCCCOc1ccc(CCC(=O)Nc2cc(C(=O)O)ccc2SCc2ccccc2)cc1` [Compound 148]: the melting point fell in the range of 178 to 181 °C. On KDR (Table 21), the IC50 came out at 930 nM.

In turn, `CCCCCCCCCCCCCCCCCCOc1ccc(CCC(=O)N(CC)c2ccc(SC)c(C(=O)O)c2)cc1` [Compound 149] registered a melting point of 108 to 110 °C. For the same molecule, the IC50 on KDR (Table 21) stood at 140 nM.

The molecule `CCCCCCCCCCCCCCCCCCOc1ccc(CCC(=O)N(CC2CC2)c2ccc(SC)c(C(=O)O)c2)cc1` [Compound 150] showed a melting point of 126 to 128 °C. For the same molecule, the IC50 on KDR (Table 21) was found to be 590 nM.

`CCCCCCCCCCCCCCCCCCOc1ccc(CCC(=O)N(Cc2ccccc2)c2ccc(SC)c(C(=O)O)c2)cc1` [Compound 151] gave a melting point of 127 to 129 °C. Further, the IC50 at KDR (Table 21) came out at 800 nM.

`CCCCCCCCCCCCCCCCCCOc1ccc(C=CC(=O)N(C)c2ccc(SC)c(C(=O)O)c2)cc1` [Compound 153] displayed a melting point of 156 to 157 °C. Moreover, at KDR (Table 21), the IC50 was found to be 250 nM.

For the molecule `CCCCCCCCCCCCCCCCCCOc1ccc(CC(=O)N(C)c2ccc(SCC)c(C(=O)O)c2)cc1` [Compound 154], the melting point lay in the range of 87 to 88.5 °C. Further, the IC50 at KDR (Table 21) came out at 500 nM.

In turn, `CCCCCCCCCCCCCCCCCCOc1ccc(CC(=O)N(C)c2ccc(SCCC)c(C(=O)O)c2)cc1` [Compound 155] showed a melting point of 76 to 80 °C. The IC50 at KDR (Table 21) was determined as 670 nM.

As for `CCCCCCCCCCCCCCCCCCOc1ccc(CC(=O)N(C)c2ccc(SCCO)c(C(=O)O)c2)cc1` [Compound 161], the melting point was 114 to 117.5 °C. For the same molecule, the IC50 at KDR (Table 21) was 1300 nM.

Consider `CCCCCCCCCCCCCCCCCCOc1ccc(CC(=O)N(C)c2ccc(SCCCO)c(C(=O)O)c2)cc1` [Compound 162], for which the melting point fell in the range of 104.5 to 106.5 °C. Further, the IC50 at KDR (Table 21) is 1160 nM.

Take `CCCCCCCCCCCCCCCCCCOc1ccc(NCC(=O)Nc2ccc(SC)c(C(=O)O)c2)cc1` [Compound 163]: the melting point is 163.5 to 169.5 °C. Besides, the IC50 at KDR (Table 21) is 410 nM.

`CCCCCCCCCCCCCCCCCCNc1ccc(CCC(=O)Nc2ccc(SC)c(C(=O)O)c2)cc1` [Compound 164] gave a melting point of 151 to 158 °C. Besides, the IC50 at KDR (Table 21) stood at 570 nM.

Usually melting point stands for the temperature, or range, at which the solid turns liquid.
